According to US10669261B2, “Heteroarylhydroxypyrimidinones as agonists of the APJ receptor” (BRISTOL-MYERS SQUIBB COMPANY, priority 2015, dated 2020):

Biological target: T1, human APJ receptor (Homo sapiens, UniProt P35414)
T1 construct: expressed in transfected cells
T1 sequence (P35414 1-380): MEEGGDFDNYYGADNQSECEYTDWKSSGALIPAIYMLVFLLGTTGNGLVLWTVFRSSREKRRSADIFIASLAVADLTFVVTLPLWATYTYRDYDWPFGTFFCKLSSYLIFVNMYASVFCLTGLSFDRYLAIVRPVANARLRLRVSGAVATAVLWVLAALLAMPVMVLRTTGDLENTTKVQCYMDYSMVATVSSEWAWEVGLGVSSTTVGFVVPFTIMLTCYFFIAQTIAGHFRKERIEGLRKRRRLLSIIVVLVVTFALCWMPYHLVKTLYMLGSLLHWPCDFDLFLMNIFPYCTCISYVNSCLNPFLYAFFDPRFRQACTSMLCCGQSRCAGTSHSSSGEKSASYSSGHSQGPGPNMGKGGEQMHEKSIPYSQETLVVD
Assay: Intracellular cAMP accumulation assay (APJ hcAMP, HTRF)
Type: cell-based
Conditions: Table 1; HEK293 cells stably expressing human APJ receptor; read-out: hAPJ cAMP EC50 Potency range
In short: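 HEK293 cells stably expressing the receptor (5,000/well) treated with compound plus […] and 2 μM forskolin for 30 min at room temperature; cAMP by HTRF against a cAMP standard curve. EC50 from variable-slope sigmoidal fit; Ymax as % of (Pyr1)apelin-13 inhibition.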

Row | EC50 | SMILES
1 | 0.01 to 10 nM | CCOCc1nc(=O)c(-c2nnc(Cc3noc4ccccc34)o2)c(O)n1-c1c(CC)cccc1CC [Example 35, 5-[5-(1,2-benzoxazol-3-ylmethyl)-1,3,4-oxadiazol-2-yl]-1-(2,6-diethylphenyl)-2-(ethoxymethyl)-6-hydroxy-1,4-dihydropyrimidin-4-one]
2 | 0.01 to 10 nM | COc1cccc(OC)c1-n1c(CCC2CC2)nc(=O)c(-c2nnc(CNC(=O)c3ccccc3)o2)c1O [Example 57, N-({5-[2-(2-cyclopropylethyl)-1-(2,6-dimethoxyphenyl)-6-hydroxy-4-oxo-1,4-dihydropyrimidin-5-yl]-1,3,4-oxadiazol-2-yl}methyl)benzamide]
3 | 0.01 to 10 nM | COc1cccc(OC)c1-n1c(C2CCCC2)nc(=O)c(-c2nnc(Cc3csc(C)n3)o2)c1O [Example 65, 2-cyclopentyl-1-(2,6-dimethoxyphenyl)-6-hydroxy-5-{5-[(2-methyl-1,3-thiazol-4-yl)methyl]-1,3,4-oxadiazol-2-yl}-1,4-dihydropyrimidin-4-one]
4 | 100 to 300 nM | CCCCc1nc(=O)c(-c2nnc(Cc3noc4ccccc34)o2)c(O)n1-c1c(OC(C)C)cccc1OC(C)C [Example 24, 5-[5-(1,2-benzoxazol-3-ylmethyl)-1,3,4-oxadiazol-2-yl]-1-[2,6-bis(propan-2-yloxy)phenyl]-2-butyl-6-hydroxy-1,4-dihydropyrimidin-4-one]

Same assay, conditions: Table 2; HEK293 cells stably expressing human APJ receptor; read-out: hAPJ cAMP EC50 Potency range

Row | EC50 | SMILES
5 | 0.01 to 10 nM | CCCCc1nc(O)c(-c2nnc(Cc3ccc(Cl)cn3)o2)c(=O)n1[C@H]1CCCc2ccccc21 [Example 100, 2-butyl-5-{5-[(5-chloropyridin-2-yl)methyl]-1,3,4-oxadiazol-2-yl}-6-hydroxy-3-[(1S)-1,2,3,4-tetrahydronaphthalen-1-yl]-3,4-dihydropyrimidin-4-one]
6 | 10 to 100 nM | CCCCc1nc(O)c(-c2nnc(Cc3noc4ccccc34)o2)c(=O)n1[C@@H](C)c1ccccc1 [Example 75, 5-{5-[(1,2-benzoxazol-3-yl)methyl]-1,3,4-oxadiazol-2-yl}-2-butyl-6-hydroxy-3-[(1S)-1-phenylethyl]-3,4-dihydropyrimidin-4-one]
7 | 0.01 to 10 nM | CCCCc1nc(O)c(-c2nnc(Cc3csc(C)n3)o2)c(=O)n1[C@H]1CCc2ccccc21 [Example 97, 2-butyl-3-[(1S)-2,3-dihydro-1H-inden-1-yl]-6-hydroxy-5-{5-[(2-methyl-1,3-thiazol-4-yl)methyl]-1,3,4-oxadiazol-2-yl}-3,4-dihydropyrimidin-4-one]
